Laboratory results from the supplement of paper PMC10307832.

compound: CO[C@@H]1[C@H](N(C)C(=O)c2ccccc2)C[C@H]2O[C@]1(C)n1c3ccccc3c3c4c(c5c6ccccc6n2c5c31)C(=O)NC4 [Midostaurin] + N=C(N)NC(=N)NCCc1ccccc1 [Phenformin] (partner 250 µM); test: relative viability (nuclei count vs DMSO), 5 days (fraction); higher = more cells survive; conditions: first compound 0.01 µM
Summary of the method: (§1)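 Cells from lung cancer lines were seeded into 1536-well plates and, one day later, dosed by pin tool. Treatments were either a single drug or a fixed dose of an anchor drug with five library-drug doses (not always all listed) in √10 steps. After 5 days, nuclei were stained in a one-step fixation (final 0.05% Triton X-100, 1% formaldehyde, 1 ug/ml Hoechst) and counted on 4× images, and relative viability is the treated-to-vehicle nuclei ratio, as the median of duplicate plates.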

Row | Cell Line | relative viability
1 | NCI-H1755 | 0.631
2 | NCI-H2023 | 0.448
3 | HCC-15 | 0.47
4 | PC-14 | 0.603
5 | EKVX | 0.232
6 | LC-2-ad | 0.542
7 | NCI-H1975 | 0.425
8 | RERF-LC-KJ | 0.454
9 | NCI-H650 | 0.403
10 | PC-3 [JPC-3] | 0.497

same assay, conditions: first compound 0.03162 µM

Row | Cell Line | relative viability
11 | NCI-H1755 | 0.621
12 | NCI-H2023 | 0.432
13 | HCC-15 | 0.459
14 | PC-14 | 0.717
15 | EKVX | 0.239
16 | LC-2-ad | 0.562
17 | NCI-H1975 | 0.418
18 | RERF-LC-KJ | 0.376
19 | NCI-H650 | 0.413
20 | PC-3 [JPC-3] | 0.474

same assay, conditions: first compound 0.1 µM

Row | Cell Line | relative viability
21 | NCI-H1755 | 0.609
22 | NCI-H2023 | 0.4
23 | HCC-15 | 0.472
24 | PC-14 | 0.522
25 | EKVX | 0.223
26 | LC-2-ad | 0.632
27 | NCI-H1975 | 0.39
28 | RERF-LC-KJ | 0.391
29 | NCI-H650 | 0.437
30 | PC-3 [JPC-3] | 0.491

same assay, conditions: first compound 0.3162 µM

Row | Cell Line | relative viability
31 | NCI-H1755 | 0.592
32 | NCI-H2023 | 0.285
33 | HCC-15 | 0.44
34 | PC-14 | 0.52
35 | EKVX | 0.25
36 | LC-2-ad | 0.586
37 | NCI-H1975 | 0.397
38 | RERF-LC-KJ | 0.379
39 | NCI-H650 | 0.322
40 | PC-3 [JPC-3] | 0.517

compound: CO[C@@H]1[C@H](N(C)C(=O)c2ccccc2)C[C@H]2O[C@]1(C)n1c3ccccc3c3c4c(c5c6ccccc6n2c5c31)C(=O)NC4 [Midostaurin] + Nc1nc2[nH]cc(CCc3ccc(C(=O)N[C@@H](CCC(=O)O)C(=O)O)cc3)c2c(=O)[nH]1 [Pemetrexed] (partner 0.2 µM); test: as above; conditions: first compound 0.01 µM
Summary of the method: as §1

Row | Cell Line | relative viability
41 | NCI-H1755 | 0.447
42 | NCI-H2023 | 0.194
43 | HCC-15 | 0.22
44 | PC-14 | 0.123
45 | EKVX | 0.514
46 | LC-2-ad | 0.295
47 | NCI-H1975 | 0.298
48 | RERF-LC-KJ | 0.477
49 | NCI-H650 | 0.906
50 | PC-3 [JPC-3] | 0.979

same assay, conditions: first compound 0.03162 µM

Row | Cell Line | relative viability
51 | NCI-H1755 | 0.469
52 | NCI-H2023 | 0.244
53 | HCC-15 | 0.229
54 | PC-14 | 0.125
55 | EKVX | 0.349
56 | LC-2-ad | 0.281
57 | NCI-H1975 | 0.31
58 | RERF-LC-KJ | 0.476
59 | NCI-H650 | 0.892
60 | PC-3 [JPC-3] | 1.07

same assay, conditions: first compound 0.1 µM

Row | Cell Line | relative viability
61 | NCI-H1755 | 0.42
62 | NCI-H2023 | 0.227
63 | HCC-15 | 0.238
64 | PC-14 | 0.118
65 | EKVX | 0.379
66 | LC-2-ad | 0.25
67 | NCI-H1975 | 0.271
68 | RERF-LC-KJ | 0.492
69 | NCI-H650 | 0.99
70 | PC-3 [JPC-3] | 0.962

same assay, conditions: first compound 0.3162 µM

Row | Cell Line | relative viability
71 | NCI-H1755 | 0.431
72 | NCI-H2023 | 0.19
73 | HCC-15 | 0.199
74 | PC-14 | 0.111
75 | EKVX | 0.404
76 | LC-2-ad | 0.258
77 | NCI-H1975 | 0.279
78 | RERF-LC-KJ | 0.463
79 | NCI-H650 | 0.686
80 | PC-3 [JPC-3] | 1.22

compound: COc1cc(-c2nn([C@H]3CC[C@H](N4CCN(C(C)=O)CC4)CC3)c3ncnc(N)c23)ccc1NC(=O)c1cc2ccccc2n1C + CC(C)C[C@H](NC(=O)[C@H](Cc1ccccc1)NC(=O)c1cnccn1)B(O)O [Bortezomib] (partner 0.002 µM); test: as above; conditions: first compound 0.0128 µM
Summary of the method: as §1

Row | Cell Line | relative viability
81 | NCI-H1755 | 1.06
82 | NCI-H2023 | 0.977
83 | HCC-15 | 1.25
84 | PC-14 | 0.9
85 | EKVX | 1.07
86 | LC-2-ad | 1.09
87 | NCI-H1975 | 0.401
88 | RERF-LC-KJ | 1.16
89 | NCI-H650 | 1.17
90 | PC-3 [JPC-3] | 0.94

same assay, conditions: first compound 0.04048 µM

Row | Cell Line | relative viability
91 | NCI-H1755 | 0.993
92 | NCI-H2023 | 1.11
93 | HCC-15 | 1
94 | PC-14 | 0.967
95 | EKVX | 1.1
96 | LC-2-ad | 1.12
97 | NCI-H1975 | 0.399
98 | RERF-LC-KJ | 1.21
99 | NCI-H650 | 1.23
100 | PC-3 [JPC-3] | 0.823

same assay, conditions: first compound 0.128 µM

Row | Cell Line | relative viability
101 | NCI-H1755 | 1.03
102 | NCI-H2023 | 0.897
103 | HCC-15 | 0.963
104 | PC-14 | 0.892
105 | EKVX | 0.917
106 | LC-2-ad | 1.06
107 | NCI-H1975 | 0.332
108 | RERF-LC-KJ | 1.13
109 | NCI-H650 | 0.848
110 | PC-3 [JPC-3] | 0.827

same assay, conditions: first compound 1.28 µM

Row | Cell Line | relative viability
111 | NCI-H1755 | 0.86
112 | NCI-H2023 | 0.905
113 | HCC-15 | 1.11
114 | PC-14 | 1.06
115 | EKVX | 0.401
116 | LC-2-ad | 1.01
117 | NCI-H1975 | 0.199
118 | RERF-LC-KJ | 1.07
119 | NCI-H650 | 0.867
120 | PC-3 [JPC-3] | 0.819

compound: COc1cc(-c2nn([C@H]3CC[C@H](N4CCN(C(C)=O)CC4)CC3)c3ncnc(N)c23)ccc1NC(=O)c1cc2ccccc2n1C + Cc1nc(Nc2ncc(C(=O)Nc3c(C)cccc3Cl)s2)cc(N2CCN(CCO)CC2)n1 [Dasatinib] (partner 0.075 µM); test: as above; conditions: first compound 0.0128 µM
Summary of the method: as §1

Row | Cell Line | relative viability
121 | NCI-H1755 | 0.452
122 | NCI-H2023 | 0.559
123 | HCC-15 | 0.638
124 | PC-14 | 0.243
125 | EKVX | 0.859
126 | LC-2-ad | 0.633
127 | NCI-H1975 | 0.345
128 | RERF-LC-KJ | 0.816
129 | NCI-H650 | 0.475
130 | PC-3 [JPC-3] | 0.985

same assay, conditions: first compound 0.04048 µM

Row | Cell Line | relative viability
131 | NCI-H1755 | 0.386
132 | NCI-H2023 | 0.668
133 | HCC-15 | 0.593
134 | PC-14 | 0.265
135 | EKVX | 0.611
136 | LC-2-ad | 0.25
137 | NCI-H1975 | 0.294
138 | RERF-LC-KJ | 0.76
139 | NCI-H650 | 0.592
140 | PC-3 [JPC-3] | 0.881

same assay, conditions: first compound 0.128 µM

Row | Cell Line | relative viability
141 | NCI-H1755 | 0.43
142 | NCI-H2023 | 0.524
143 | HCC-15 | 0.684
144 | PC-14 | 0.282
145 | EKVX | 0.505
146 | LC-2-ad | 0.622
147 | NCI-H1975 | 0.357
148 | RERF-LC-KJ | 0.772
149 | NCI-H650 | 0.462
150 | PC-3 [JPC-3] | 0.922

same assay, conditions: first compound 1.28 µM

Row | Cell Line | relative viability
151 | NCI-H1755 | 0.433
152 | NCI-H2023 | 0.663
153 | HCC-15 | 0.731
154 | PC-14 | 0.278
155 | EKVX | 0.385
156 | LC-2-ad | 0.369
157 | NCI-H1975 | 0.24
158 | RERF-LC-KJ | 0.794
159 | NCI-H650 | 0.456
160 | PC-3 [JPC-3] | 1.03

compound: COc1cc(-c2nn([C@H]3CC[C@H](N4CCN(C(C)=O)CC4)CC3)c3ncnc(N)c23)ccc1NC(=O)c1cc2ccccc2n1C + O=C(CCCCCCC(=O)Nc1ccccc1)NO [Vorinostat] (partner 1 µM); test: as above; conditions: first compound 0.0128 µM
Summary of the method: as §1

Row | Cell Line | relative viability
161 | NCI-H1755 | 1
162 | NCI-H2023 | 0.821
163 | HCC-15 | 0.954
164 | PC-14 | 0.931
165 | EKVX | 0.966
166 | LC-2-ad | 0.857
167 | NCI-H1975 | 0.724
168 | RERF-LC-KJ | 0.754
169 | NCI-H650 | 0.633
170 | PC-3 [JPC-3] | 0.667

same assay, conditions: first compound 0.04048 µM

Row | Cell Line | relative viability
171 | NCI-H1755 | 0.945
172 | NCI-H2023 | 0.631
173 | HCC-15 | 0.752
174 | PC-14 | 0.823
175 | EKVX | 0.801
176 | LC-2-ad | 0.742
177 | NCI-H1975 | 0.735
178 | RERF-LC-KJ | 0.737
179 | NCI-H650 | 0.709
180 | PC-3 [JPC-3] | 0.989

same assay, conditions: first compound 0.128 µM

Row | Cell Line | relative viability
181 | NCI-H1755 | 0.721
182 | NCI-H2023 | 0.646
183 | HCC-15 | 0.85
184 | PC-14 | 0.653
185 | EKVX | 0.674
186 | LC-2-ad | 0.703
187 | NCI-H1975 | 0.624
188 | RERF-LC-KJ | 0.75
189 | NCI-H650 | 0.443
190 | PC-3 [JPC-3] | 0.808

same assay, conditions: first compound 1.28 µM

Row | Cell Line | relative viability
191 | NCI-H1755 | 0.951
192 | NCI-H2023 | 0.695
193 | HCC-15 | 0.698
194 | PC-14 | 0.716
195 | EKVX | 0.382
196 | LC-2-ad | 0.703
197 | NCI-H1975 | 0.41
198 | RERF-LC-KJ | 0.619
199 | NCI-H650 | 0.517
200 | PC-3 [JPC-3] | 1.01
